# Reference: patent publication US12180226B2, “Spirotricycle RIPK1 inhibitors and methods of uses thereof” (Merck Sharp & Dohme LLC, priority 2021, dated 2024)
# Counter-ions that a name gives are not always drawn.
# Target: RIPK1 (recombinant GST-RIPK1 kinase domain, residues 1-327) (Homo sapiens (Human), UniProt Q13546)
# Test: RIPK1-ADP-Glo Enzymatic Assay
# Format: biochemical
# Settings: ADP-Glo; 25 nM GST-RIPK1, 300 μM ATP; assay lower limit ~25 nM; read-out: RIPK1 V0 Ec50
# In short: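 Luminescent ADP-Glo readout of ATP-to-ADP conversion. Conditions: 25 nM enzyme, 300 μM ATP, 3 μM dephospho-MBP, pH 7.3 HEPES buffer with 20 mM MgCl2; 30 min compound pre-incubation, 150 min reaction. EC50 via four-parameter sigmoidal regression; assay floor ~25 nM.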
# Chain of RIPK1 (recombinant GST-RIPK1 kinase domain, residues 1-327) (Q13546 1-327): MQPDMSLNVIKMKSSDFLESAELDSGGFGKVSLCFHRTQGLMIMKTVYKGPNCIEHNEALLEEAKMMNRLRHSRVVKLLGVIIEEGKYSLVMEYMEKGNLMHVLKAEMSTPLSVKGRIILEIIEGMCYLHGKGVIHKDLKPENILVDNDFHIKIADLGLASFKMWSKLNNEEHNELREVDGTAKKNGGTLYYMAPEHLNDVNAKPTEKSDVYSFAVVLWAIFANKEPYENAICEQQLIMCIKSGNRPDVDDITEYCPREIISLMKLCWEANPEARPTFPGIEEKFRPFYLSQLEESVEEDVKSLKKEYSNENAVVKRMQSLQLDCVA
row,Compound,EC50
1,"Cc1ccnc(C(=O)N2CCC3(CC2)O[C@@H]2CC[C@@H](c4cc(F)cc(F)c4)N2C3=O)n1 [Example 6.88, (5′S,7a′R)-5′-(3,5-difluorophenyl)-1-(4-methylpyrimidine-2-carbonyl)tetrahydro-3′H-spiro[piperidine-4,2′-pyrrolo[2,1-b] [1,3]oxazol]-3′-one]",136 nM
2,"O=C1N2[C@@H](CC[C@H]2c2cc(F)cc(F)c2)OC12CCN(c1ccc(OCC3CCO3)c3ccnn13)CC2 (mixture of isomers) [Example 19.5, (5′S,7a′R)-5′-(3,5-difluorophenyl)-1-(4-(((R and S)-oxetan-2-yl)methoxy)pyrazolo [1,5-a]pyridin-7-yl)tetrahydro-3′H-spiro[piperidine-4,2′-pyrrolo[2,1-b]oxazol]-3′-one, TFA salt]",208 nM
3,"O=C(c1cnn2ccccc12)N1CCC2(CC1)O[C@@H]1CC[C@@H](c3cc(F)cc(F)c3)N1C2=O [Example 5.72, (5′S,7a′R)-5′-(3,5-difluoro-phenyl)-1-(pyrazolo[1,5-a]-pyridine-3-carbonyl)tetra-hydro-3′H-spiro[piperidine-4,2′-pyrrolo[2,1-b]oxazol]-3′-one]",30.8 nM
4,"Cc1occc1C(=O)N1CCC2(CC1)O[C@@H]1CC[C@@H](c3cc(F)cc(F)c3)N1C2=O [Example 5.37, (5′S,7a′R)-5′-(3,5-difluoro-phenyl)-1-(2-methylfuran-3-carbonyl)tetrahydro-3′H-spiro[piperidine-4,2′-pyrrolo[2,1-b]oxazol]-3′-one]",< 25 nM
5,"N#Cc1ccnc(N2CCC3(CC2)O[C@@H]2CC[C@@H](c4cccc(F)c4)N2C3=O)c1 [Example 4.54, 2-[(5′S,7a′R)-5′-(3-fluorophenyl)-3′-oxotetrahydro-1H,3′H-spiro[piperidine-4,2′-pyrrolo[2,1-b] [1,3]oxazol]-1-yl]pyridine-4-carbonitrile]",31.1 nM
6,"COc1cc(C(=O)N2CCC3(CC2)O[C@@H]2CC[C@@H](c4cccc(F)c4)N2C3=O)ccc1F [Example 6.120, (5′S,7a′R)-1-(4-fluoro-3-methoxybenzene-1-carbonyl)-5′-(3-fluoro-phenyl)tetrahydro-3′H-spiro[piperidine-4,2′-pyrrolo[2,1-b][1,3]oxazol]-3′-one]",< 25 nM
7,"N#Cc1ccc(N2CCC3(O[C@@H]4CC[C@@H](c5ccccc5)N4C3=O)C(F)C2)n2ncnc12 (stereo partly drawn) [Example 4.257, 5-[(5′S,7a′R)-3-fluoro-3′-oxo-5′-phenyltetrahydro-1H,3′H-spiro[piperidine-4,2′-pyrrolo[2,1-b] [1,3]oxazol]-1-yl][1,2,4]triazolo[1,5-a] pyridine-8-carbonitrile]",< 25 nM
8,"Cn1nc(C(F)(F)F)cc1-c1ccc(N2CCC3(CC2)O[C@@H]2CC[C@@H](c4ccccc4)N2C3=O)n2ncnc12 [Example 21.20, (5′S,7a′R)-1-{8-[1-methyl-3-(trifluoromethyl)-1H-pyrazol-5-yl][1,2,4]triazolo[1,5-a]pyridin-5-yl}-5′-phenyltetrahydro-3′H-spiro[piperidine-4,2′-pyrrolo[2,1-b][l,3]oxazol]-3′-one]",< 25 nM
9,"CC(C)(O)C#Cc1ccc(C(=O)N2CCC3(CC2)O[C@@H]2CC[C@@H](c4cc(F)cc(F)c4)N2C3=O)cc1 [Example 5.26, (5′S,7a′R)-5′-(3,5-difluoro-phenyl)-1-(4-(3-hydroxy-3-methylbut-1-yn-1-yl)-benzoyl)tetrahydro-3′H-spiro[piperidine-4,2′-pyrrolo[2,1-b]oxazol]-3′-one]",737 nM
10,"O=C1N2[C@@H](CC[C@H]2c2cc(F)cc(F)c2)OC12CCN(c1cccc3nccn13)CC2 [Example 13.5, (5′S,7a′R)-5′-(3,5-difluorophenyl)-1-(imidazo[1,2-a]pyridin-5-yl)tetrahydro-3′H-spiro[piperidine-4,2′-pyrrolo[2,1-b]oxazol]-3′-one, TFA salt]",98.4 nM
11,"O=C1N2[C@@H](CC[C@H]2c2ccccc2)OC12CCN(c1ncccc1C(F)F)CC2 [Example 11.24, (5′S,7a′R)-1-[3-(difluoromethyl)pyridin-2-yl]-5′-phenyltetrahydro-3′H-spiro[piperidine-4,2′-pyrrolo[2,1-b][1,3]oxazol]-3′-one]",366 nM
12,"NC(=O)c1ccc(N2CCC3(CC2)O[C@@H]2CC[C@@H](c4ccccc4)N2C3=O)nc1Cl [Example 4.201, 2-chloro-6-[(5′S,7a′R)-3′-oxo-5′-phenyltetrahydro-1H,3′H-spiro[piperidine-4,2′-pyrrolo[2,1-b] [1,3]oxazol]-1-yl]pyridine-3-carboxamide]",< 25 nM
13,"N#CCc1nc(C(=O)N2CCC3(CC2)O[C@@H]2CC[C@@H](c4cc(F)cc(F)c4)N2C3=O)cs1 [Example 6.29, {4-[(5′S,7a′R)-5′-(3,5-difluorophenyl)-3-oxo-tetrahydro-1H,3′H-spiro[piperidine-4,2′-pyrrolo[2,1-b][1,3]oxazole]-1-carbonyl]-1,3-thiazol-2-yl} acetonitrile]",413 nM
14,Cc1nccc(C(=O)N2CCC3(CC2)O[C@@H]2CC[C@@H](c4cc(F)cc(F)c4)N2C3=O)n1 [Example 6.95],245 nM
15,"O=C(c1ccoc1)N1CCC2(CC1)O[C@@H]1CC[C@@H](c3cc(F)cc(F)c3)N1C2=O [Example 5.36, (5′S,7a′R)-5′-(3,5-difluoro-phenyl)-1-(furan-3-carbon-yl)tetrahydro-3′H-spiro [piperidine-4,2′-pyrrolo-[2,1-b]oxazol]-3′-one]",< 25 nM
16,"O=C1N2[C@@H](CC[C@H]2C2CCCC2)OC12CCN(c1ccnc3c(F)cnn13)CC2 [Example 4.88, (5′S,7a′R)-5′-cyclopentyl-1-(3-fluoropyrazolo [1,5-a]pyrimidin-7-yl)tetrahydro-3′H-spiro[piperidine-4,2′-pyrrolo[2,1-b]oxazol]-3′-one, TFA salt]",< 25 nM
17,"O=C1N2[C@@H](CC[C@H]2c2ccccc2F)OC12CCN(c1ncnc3ccnn13)CC2 [Example 4.252, (5′S,7a′R)-5′-(2-fluorophenyl)-1-(pyrazolo[1,5-a] [1,3,5]triazin-4-yl)tetrahydro-3′H-spiro[piperidine-4,2′-pyrrolo[2,1-b] [1,3]oxazol]-3′-one]",< 25 nM
18,"COc1ccnc(N2CCC3(CC2)O[C@@H]2CC[C@@H](c4ccccc4)N2C3=O)c1 [Example 11.30, (5′S,7a′R)-1-(4-methoxypyridin-2-yl)-5′-phenyltetrahydro-3′H-spiro[piperidine-4,2′-pyrrolo[2,1-b][1,3]oxazol]-3′-one]",191 nM
19,"N#Cc1ccccc1C(=O)N1CCC2(CC1)O[C@@H]1CC[C@@H](c3cccc(F)c3)N1C2=O [Example 6.129, 2-[(5′S,7a′R)-5′-(3-fluorophenyl)-3′-oxotetrahydro-1H,3′H-spiro[piperidine-4,2′-pyrrolo[2,1-b][1,3]-oxazole]-1-carbonyl] benzonitrile]",188 nM
20,"CC1CC2(CCN1C(=O)c1ccccc1)O[C@@H]1CC[C@@H](c3cc(F)cc(F)c3)N1C2=O (stereo partly drawn) [Example 6.106, (4R,5′S,7a′R)-1-(benzenecarbonyl)-5′-(3,5-difluorophenyl)-2-methyltetrahydro-3′H-spiro[piperidine-4,2′-pyrrolo[2,1-b] [1,3]oxazol]-3′-one]",202 nM

# Same assay, conditions: RIPK1 V0 Ec50, ADP-Glo; 25 nM GST-RIPK1, 300 μM ATP; assay lower limit ~25 nM
row,Compound,EC50
1,"N#Cc1ccc(N2CCC3(CC2)O[C@@H]2CC[C@@H](c4cc(F)cc(F)c4)N2C3=O)cc1Cl [Example 4.20, 2-chloro-4-[(5′S,7a′R)-5′-(3,5-difluorophenyl)-3′-oxotetrahydro-1H,3′H-spiro[piperidine-4,2′-pyrrolo[2,1-b] [1,3]oxazol]-1-yl]benzonitrile]",< 25 nM
